Reference: patent US20030055106A1, “Therapeutic uses of peroxometallic compounds” (priority 1999, published 2003)

What was measured:
[1] = system: Human umbilical vein endothelial cells (HUVECs); conditions: read-out: approximate IC50, endothelial cell proliferation; 96 hours in culture
Protocol: Each experiment was performed in triplicate. The culture medium was changed daily.

[2] = system: PC3 prostate cancer cells; assay: In vitro collagen-fibrin tumor progression model, PC-3; type: cell-based, human; conditions: renewed daily, 15 days
Protocol: FIG. 11: Illustration of the antitumor activity of bpV(phen) in vitro using PC3 prostate cancer cells. Collagen gels containing the PC3 cells were prepared according to the method of Esdale and Bard (1972). Briefly, stock collagen solution (3.5 mg/ml in acetic acid 0.02N; Rat tail) was added to a mixture composed of culture medium (5×), fetal bovine serum (FBS), bicarbonate (0.26M), and was neutralized with 0.1N NaOH. A cell suspension (1.42×10^6 cells/ml) was mixed into the collagen-medium mixture to obtain a final concentration of 2.5×10^5 cells/ml.
A DMEM medium, having a normal concentration of glucose and without phenol red, was used. After gelification (within 1 h) of the collagen mixture containing the cells, the gels were removed from their culture wells (mould) and interwoven into a receptor hole prepared in a fibrin gel, as previously described (103). The fibrin gel was made from a 0.3% fibrinogen solution in Hank's balanced salt solution. Fibrin was allowed to polymerize with thrombin (stock solution at 1.75 mg/ml) at a ratio of 1:003 v/v fibrin to thrombin. The collagen-fibrin complexes were then covered with serum-supplemented medium according to the cell types. An inhibitor of plasminogen activator (Trasylol, Parke Davies) was added into the medium at 10 μl/ml (100U/ml).
Cell behavior was periodically monitored over 15 days of culture. […]

[3] = system: air pouch exudates (leukocyte recruitment, pro-inflammatory mediators); assay: Murine air pouch model, L. major intra-pouch injection; type: in vivo, BALB/c mice
Protocol: FIG. 6: Neutrophils, eosinophils and MØ recruited in air pouch exudates of bpV(phen)-treated BALB/c mice in response to L. major promastigotes intra-pouch injection. Air pouch exudates were collected from animals injected with endotoxin-free PBS, LPS (20 μg/ml), L. major and bpV(phen) (500 nM i.p., 2 hour)+L. major, 6 hr post-inoculation. Each time point represents the mean±SD (n=4 mice) of 2 experiments similarly performed.
FIG. 7: In vivo Leishmania-induced pro-inflammatory mediator generations in pV-treated mice. (A) Nitrate level determination in air pouch exudates collected 6 hr post-inoculation of endotoxin-free PBS, L. major and bpV(phen) followed by L. major has been performed. Values are the mean±SEM of 2 experiments performed independently. (B) Evaluation of pro-inflammatory cytokines (IL-6 and IL-1β) and chemokines (MCP-1 and MIP-2) secreted in air pouch exudates collected as described above were measured by ELISA as described in more detail below. Values are the mean±SEM of 2 experiments performed independently. […] IL-6, IL-1β, MCP-1 and MIP-2 secretion were respectively 12.8-, 2-, 8- and 6.8-time more secreted in L. major -injected bpV(phen)-treated animals compared to L. major alone. PBS control was equal to background.
With the use of a murine air pouch model, we investigated early inflammatory events that occur following L. major skin injection in bpV(phen)-treated animals (FIG. 6).
In parallel to this experiment, in vivo generation of Leishmania-induced NO and pro-inflammatory mediators in bpV(phen)-treated mice were measured in air pouch exudates (FIG. 7).

[4] = L. major-injected bpV(phen)-treated animals, 6 hr, ELISA
[5] = bpV(phen)-treated + L. major, 6 hr

Structure (SMILES): O.O.O.OO.OO.[K+].[OH-].[V].c1cnc2c(c1)ccc1cccnc12 [bpV(phen), potassium bisperoxo(1,10-phenanthroline)oxovanadate]
- IC50 [1]: ~2000 nM
- progression of PC-3 cells (secondary tumors, migration front) ([2]; 2 μM): a decrease in the size of the secondary tumor was observed
- progression of PC-3 cells (secondary tumors, migration front) ([2]; 5 and 10 μM): there was no migration front and there were no secondary tumors
- NO generation (nitrate level) in air pouch exudates in response to L. major infection ([3]; 6 hr post-inoculation): enhanced generation
- IL-1β secretion in air pouch exudates, compared to L. major alone [3, 4]: 2 time
- IL-6 secretion in air pouch exudates, compared to L. major alone [3, 4]: 12.8 time
- MCP-1 secretion in air pouch exudates, compared to L. major alone [3, 4]: 8 time
- MIP-2 secretion in air pouch exudates, compared to L. major alone [3, 4]: 6.8 time
- recruitment of cells in air pouch exudates ([3]; bpV(phen) 500 nM i.p., 2 hour + L. major 10^7 parasites/ml, 6 hours post-injection, vs L. major alone): five times greater
- recruited leukocytes that were eosinophils [3, 5]: 18%
- recruited leukocytes that were macrophages [3, 5]: 12%
- recruited leukocytes that were neutrophils [3, 5]: ~70%
